Data reported in patent US8071768B2, “Alkylquinoline and alkylquinazoline kinase modulators” (Janssen Pharmaceutica, N.V., priority 2005, dated 2011).

Key:
[1] = biological target: T1, isolated kinase domain of the human c-kit receptor (Homo sapiens, UniProt P10721); test: c-Kit Fluorescence Polarization Kinase Assay; type: biochemical; conditions: uncertainty ±10%; read-out: ckit IC50
T1 construct: isolated kinase domain of the human c-kit receptor; purchased ProQinase lot SP005
Description: c-Kit Fluorescence Polarization Kinase Assay
The compounds of the present invention are also specific inhibitors of c-Kit. Selection of preferred compounds of Formula I for use as c-Kit inhibitors was performed in the following manner using an in vitro kinase assay to measure inhibition of the isolated kinase domain of the human c-kit receptor in a fluorescence polarization (FP) protocol. The c-kit assay utilized the fluorescein-labeled phosphopeptide and the anti-phosphotyrosine antibody included in the Panvera Phospho-Tyrosine Kinase Kit (Green) supplied by Invitrogen. When c-kit phosphorylated the poly Glu4Tyr, the fluorescein-labeled phosphopeptide was displaced from the anti-phosphotyrosine antibody by the phosphorylated poly Glu4Tyr, thus decreasing the FP value. The c-kit kinase reaction was incubated at room temperature for 45 minutes under the following conditions: 1 nM c-kit (ProQinase, lot SP005), 100 ug/mL poly Glu4Tyr, 50 uM ATP, 5 mM MgCl2, 1 mM DTT, 0.01% Tween-20, 1% DMSO or compound in […], pH 7.5. The kinase reaction was stopped with the addition of EDTA. The fluorescein-labeled phosphopeptide and the anti-phosphotyrosine antibody were added and incubated for 30 minutes at room temperature and fluorescence polarization was read. Data points were an average of triplicate samples. Inhibition and IC50 data analysis were done with GraphPad Prism using a non-linear regression fit with a multiparamater, sigmoidal dose-response (variable slope) equation.

[2] = biological target: T2, TrkB (Homo sapiens, UniProt Q16620); test: Trk B Fluorescence Polarization Kinase Assay; type: biochemical; conditions: uncertainty ±10%
T2 construct: purchased Upstate 14-507M
Method in brief: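 The TrkB kinase reaction (50 nM enzyme, 20 ug/mL poly Glu4Tyr, 150 uM ATP, 5 mM MgCl2, 1% DMSO) ran 30 minutes at room temperature and was stopped with EDTA. Phosphorylation was detected by fluorescence-polarization displacement of a fluorescein phosphopeptide from an anti-phosphotyrosine antibody. IC50 came from a variable-slope sigmoidal fit of triplicates.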

T2 sequence (Q16620 32-822): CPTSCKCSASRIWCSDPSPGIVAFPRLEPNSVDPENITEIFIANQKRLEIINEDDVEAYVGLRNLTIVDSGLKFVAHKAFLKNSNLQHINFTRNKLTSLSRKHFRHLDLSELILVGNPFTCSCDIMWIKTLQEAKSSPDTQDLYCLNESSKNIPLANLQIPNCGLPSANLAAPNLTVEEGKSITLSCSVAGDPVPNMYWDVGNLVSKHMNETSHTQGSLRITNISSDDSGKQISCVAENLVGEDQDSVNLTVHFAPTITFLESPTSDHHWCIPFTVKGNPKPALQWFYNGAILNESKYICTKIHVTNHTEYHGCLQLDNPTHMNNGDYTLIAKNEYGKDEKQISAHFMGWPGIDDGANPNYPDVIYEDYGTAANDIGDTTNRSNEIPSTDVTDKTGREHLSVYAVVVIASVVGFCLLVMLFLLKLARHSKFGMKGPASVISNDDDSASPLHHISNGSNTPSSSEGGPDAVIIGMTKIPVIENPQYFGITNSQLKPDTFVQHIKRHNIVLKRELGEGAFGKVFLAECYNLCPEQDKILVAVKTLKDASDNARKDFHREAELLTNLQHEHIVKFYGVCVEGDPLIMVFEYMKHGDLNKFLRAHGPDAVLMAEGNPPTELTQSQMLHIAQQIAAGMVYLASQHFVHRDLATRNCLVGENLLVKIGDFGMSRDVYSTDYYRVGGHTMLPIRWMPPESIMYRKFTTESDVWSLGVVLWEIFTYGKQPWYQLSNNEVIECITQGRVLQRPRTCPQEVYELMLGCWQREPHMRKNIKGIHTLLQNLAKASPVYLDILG
T1 sequence (P10721 589-937 limits assumed): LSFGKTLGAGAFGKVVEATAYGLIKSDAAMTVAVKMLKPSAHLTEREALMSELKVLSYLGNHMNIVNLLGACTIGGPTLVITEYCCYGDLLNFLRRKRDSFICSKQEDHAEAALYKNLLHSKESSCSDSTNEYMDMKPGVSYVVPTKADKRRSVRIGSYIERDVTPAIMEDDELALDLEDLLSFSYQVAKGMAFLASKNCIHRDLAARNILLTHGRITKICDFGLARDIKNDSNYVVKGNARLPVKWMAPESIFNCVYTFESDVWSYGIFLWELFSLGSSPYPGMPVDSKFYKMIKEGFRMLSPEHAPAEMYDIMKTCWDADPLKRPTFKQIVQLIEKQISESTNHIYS

IC50 [1] [nM]	IC50 [2] [nM]	Structure (SMILES)
11	400	CS(=O)(=O)NCCCOc1ccc2c(C3CCN(C(=O)Nc4ccc(OC5CCCC5)nc4)CC3)ncnc2c1 [Compound 88, 4-[7-(3-Methanesulfonylamino-propoxy)-quinazolin-4-yl]-piperidine-1-carboxylic acid (6-cyclopentyloxy-pyridin-3-yl)-amide]
282	7900	CC(C)Oc1ccc(NC(=O)N2CCC(c3ncnc4ccc(OCCCN5CCN(C)CC5)cc34)CC2)cc1 [Compound 76, 4-{6-[3-(4-Methyl-piperazin-1-yl)-propoxy]-quinazolin-4-yl}-piperidine-1-carboxylic acid (4-isopropoxy-phenyl)-amide]
158	19200	COc1cc2ncnc(C3CCN(C(=O)Nc4ccc(N5CCOCC5)cc4)CC3)c2cc1OC [Compound 18, 4-(6,7-Dimethoxy-quinazolin-4-yl)-piperidine-1-carboxylic acid (4-morpholin-4-yl-phenyl)-amide]
610		COc1cc2ncnc(C3CCN(C(=O)Nc4ccc(C(C)C)cc4)CC3)c2cc1OC [Compound 4, 4-(6,7-Dimethoxy-quinazolin-4-yl)-piperidine-1-carboxylic acid (4-isopropyl-phenyl)-amide]
25	8500	O=C1CCCN1CCOc1ccc2c(C3CCN(C(=O)Nc4ccc(N5CCOCC5)nc4)CC3)ncnc2c1 [Compound 83, 4-{7-[2-(2-Oxo-pyrrolidin-1-yl)-ethoxy]-quinazolin-4-yl}-piperidine-1-carboxylic acid (6-morpholin-4-yl-pyridin-3-yl)-amide]
13	2700	O=C1CCCN1CCCOc1ccc2c(C3CCN(C(=O)Nc4ccc(N5CCCC5)nc4)CC3)ncnc2c1 [Compound 89, 4-{7-[3-(2-Oxo-pyrrolidin-1-yl)-propoxy]-quinazolin-4-yl}-piperidine-1-carboxylic acid (6-pyrrolidin-1-yl-pyridin-3-yl)-amide]
23	2000	O=C1CCCN1CCCOc1ccc2c(C3CCN(C(=O)Nc4ccc(N5CCOCC5)nc4)CC3)ncnc2c1 [Compound 72, 4-{7-[3-(2-Oxo-pyrrolidin-1-yl)-propoxy]-quinazolin-4-yl}-piperidine-1-carboxylic acid (6-morpholin-4-yl-pyridin-3-yl)-amide]
	2200	CCOc1ccc(NC(=O)N2CCC(c3ncnc4cc(OC)c(OC)cc34)CC2)cc1 [Compound 44, 4-(6,7-Dimethoxy-quinazolin-4-yl)-piperidine-1-carboxylic acid (4-ethoxy-phenyl)-amide]
	> 20000	O=C(Nc1ccc(N2CCOCC2)cc1)N1CCC(c2ncnc3cc(OCCCN4CCCC4)ccc23)CC1 [Compound 124, 4-[7-(3-Pyrrolidin-1-yl-propoxy)-quinazolin-4-yl]-piperidine-1-carboxylic acid (4-morpholin-4-yl-phenyl)-amide]
	> 42000	CN1CCCN(c2ccc3c(C4CCN(C(=O)Nc5ccc(N6CCOCC6)cc5)CC4)ncnc3c2)CC1 [Compound 138, 4-[7-(4-Methyl-[1,4]diazepan-1-yl)-quinazolin-4-yl]-piperidine-1-carboxylic acid (4-morpholin-4-yl-phenyl)-amide]
	9400	COc1cc2ncnc(C3CCN(C(=O)Nc4ccc5c(c4)CCO5)CC3)c2cc1OC [Compound 27, 4-(6,7-Dimethoxy-quinazolin-4-yl)-piperidine-1-carboxylic acid (2,3-dihydro-benzofuran-5-yl)-amide]
	35000	COc1cc2ncnc(C3CCN(C(=O)Nc4ccc5ncsc5c4)CC3)c2cc1OC [Compound 24, 4-(6,7-Dimethoxy-quinazolin-4-yl)-piperidine-1-carboxylic acid benzothiazol-6-ylamide]
	> 20000	O=C(Nc1ccc(N2CCOCC2)cc1)N1CCC(c2ncnc3cc(OCCCN4CCC[C@H]4CO)ccc23)CC1 [Compound 119, (S)-4-{7-[3-(2-Hydroxymethyl-pyrrolidin-1-yl)-propoxy]-quinazolin-4-yl}-piperidine-1-carboxylic acid (4-morpholin-4-yl-phenyl)-amide]
	2700	COc1cc2ncnc(C3CCN(C(=O)Nc4ccc(N5CCCCC5)cc4)CC3)c2cc1OC [Compound 19, 4-(6,7-Dimethoxy-quinazolin-4-yl)-piperidine-1-carboxylic acid (4-piperidin-1-yl-phenyl)-amide]
	2600	CC(C)c1ccc(NC(=O)CN2CCC(c3ncnc4ccccc34)CC2)cc1 [Compound 16, N-(4-Isopropyl-phenyl)-2-(4-quinazolin-4-yl-piperidin-1-yl)-acetamide]
	800	CC(C)Oc1ccc(NC(=O)N2CCC(c3ncnc4ccc(C#CCN5CCOCC5)cc34)CC2)cc1 [Compound 15, 4-[6-(3-Morpholin-4-yl-prop-1-ynyl)-quinazolin-4-yl]-piperidine-1-carboxylic acid (4-isopropoxy-phenyl)-amide]
	500	COc1cc2ncnc(C3CCN(C(=O)Nc4ccc(OC(F)(F)F)cc4)CC3)c2cc1OC [Compound 50, 4-(6,7-Dimethoxy-quinazolin-4-yl)-piperidine-1-carboxylic acid (4-trifluoromethoxy-phenyl)-amide]
	2000	CS(=O)(=O)NCCCOc1ccc2c(C3CCN(C(=O)Nc4ccc(N5CCCC5)nc4)CC3)ncnc2c1 [Compound 86, 4-[7-(3-Methanesulfonylamino-propoxy)-quinazolin-4-yl]-piperidine-1-carboxylic acid (6-pyrrolidin-1-yl-pyridin-3-yl)-amide]
	7200	CS(=O)(=O)NCCCOc1ccc2c(C3CCN(C(=O)Nc4ccc(N5CCOCC5)nc4)CC3)ncnc2c1 [Compound 87, 4-[7-(3-Methanesulfonylamino-propoxy)-quinazolin-4-yl]-piperidine-1-carboxylic acid (6-morpholin-4-yl-pyridin-3-yl)-amide]
	> 42000	O=C(Nc1ccc(N2CCOCC2)cc1)N1CCC(c2ncnc3cc(N4CCC[C@@H]4CO)ccc23)CC1 [Compound 132, (R)-4-[7-(2-Hydroxymethyl-pyrrolidin-1-yl)-quinazolin-4-yl]-piperidine-1-carboxylic acid (4-morpholin-4-yl-phenyl)-amide]
	800	CN1CCN(CCCOc2ccc3c(C4CCN(C(=O)Nc5ccc(N6CCCC6)nc5)CC4)ncnc3c2)CC1 [Compound 104, 4-{7-[3-(4-Methyl-piperazin-1-yl)-propoxy]-quinazolin-4-yl}-piperidine-1-carboxylic acid (6-pyrrolidin-1-yl-pyridin-3-yl)-amide]
	100	CC(C)Oc1ccc(NC(=O)N2CCC(c3ncnc4cc(OCCCN5CCOCC5)ccc34)CC2)cc1 [Compound 38]
	11500	O=C(NCCCOc1ccc2c(C3CCN(C(=O)Nc4ccc(N5CCOCC5)nc4)CC3)ncnc2c1)N1CCOCC1 [Compound 113, Morpholine-4-carboxylic acid (3-{4-[1-(6-morpholin-4-yl-pyridin-3-ylcarbamoyl)-piperidin-4-yl]-quinazolin-7-yloxy}-propyl)-amide]
	300	CC(C)Oc1ccc(NC(=O)N2CCC(c3ncnc4cc(OCCN5CCOC5=O)ccc34)CC2)cc1 [Compound 79, 4-{7-[2-(2-Oxo-oxazolidin-3-yl)-ethoxy]-quinazolin-4-yl}-piperidine-1-carboxylic acid (4-isopropoxy-phenyl)-amide]
	6600	COc1cc2ncnc(C3CCN(C(=O)Nc4ccc(C)cc4)CC3)c2cc1OC [Compound 48, 4-(6,7-Dimethoxy-quinazolin-4-yl)-piperidine-1-carboxylic acid p-tolylamide]
	26700	O=C(Nc1ccc(N2CCOCC2)cc1)N1CCC(c2ncnc3cc(OCCN4CCOC4=O)ccc23)CC1 [Compound 148, 4-{7-[2-(2-Oxo-oxazolidin-3-yl)-ethoxy]-quinazolin-4-yl}-piperidine-1-carboxylic acid (4-morpholin-4-yl-phenyl)-amide]
	> 20000	O=C(Nc1ccc(N2CCOCC2)cc1)N1CCC(c2ncnc3cc(OCCCN4CCNCC4)ccc23)CC1 [Compound 123, 4-[7-(3-piperazin-1-yl-propoxy)-quinazolin-4-yl]-piperidine-1-carboxylic acid (4-morpholin-4-yl-phenyl)-amide]
	> 20000	CCN1CCN(CCCOc2ccc3c(C4CCN(C(=O)Nc5ccc(N6CCOCC6)cc5)CC4)ncnc3c2)CC1 [Compound 115, 4-{7-[3-(4-Ethyl-piperazin-1-yl)-propoxy]-quinazolin-4-yl}-piperidine-1-carboxylic acid (4-morpholin-4-yl-phenyl)-amide]
	14200	CN(C)CC(=O)N1CCN(c2ccc3c(C4CCN(C(=O)Nc5ccc(N6CCOCC6)cc5)CC4)ncnc3c2)CC1 [Compound 144, 4-{7-[4-(2-Dimethylamino-acetyl)-piperazin-1-yl]-quinazolin-4-yl}-piperidine-1-carboxylic acid (4-morpholin-4-yl-phenyl)-amide]
